Several values for one entry are separate records, joined by “and”; a condition that tells them apart may be missing. Equal entries are not always repeated. *1 amine or outer side, *2 acyl side, *3 side chain or, on linkers, in order; H or OH if unused. Where a SMILES comes first, the peptide text is derived from it. Where no end group is shown, it is not given here. [ ]: non-standard residue; d: D form. The star is where a group is joined. ξ: configuration not given here. ξ3Amino2oxobutanoyl = CC(N[*:1])C(=O)C(=O)[*:2]; Abu(ψCOCO) = CC[C@H](N[*:1])C(=O)C(=O)[*:2]; AMC = Cc1cc(=O)oc2cc(N*)ccc12; βAla = NCCC(=O)O; NHcPr = C1CC1N*
What was measured:
PbSUB1 = molecular target: T1, PbSUB1 (Plasmodium berghei, UniProt A0A509AM03); test: biochemical
T1 construct: recombinant Plasmodium falciparum SUB1 catalytic domain (rPfSUB1cat; closed circles) and rPbSUB1cat (closed triangles); 6-His (C); made in house; host or cells: baculovirus-infected insect cells (Tn5), then limited chymotrypsin digestion
T1 sequence (A0A509AM03 257-574): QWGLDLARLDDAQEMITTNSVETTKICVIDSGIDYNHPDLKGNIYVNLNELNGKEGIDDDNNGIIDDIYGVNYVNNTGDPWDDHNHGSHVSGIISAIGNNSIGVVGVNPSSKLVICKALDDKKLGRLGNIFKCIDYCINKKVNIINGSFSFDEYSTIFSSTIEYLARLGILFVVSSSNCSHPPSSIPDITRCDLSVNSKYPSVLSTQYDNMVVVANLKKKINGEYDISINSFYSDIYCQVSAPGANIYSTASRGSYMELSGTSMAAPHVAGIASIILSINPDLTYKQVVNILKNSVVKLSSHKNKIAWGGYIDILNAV
Excerpt: (§1) Initial hydrolysis rates were then plotted against inhibitor concentration.

rPvSUB1 = molecular target: T2, rPvSUB1 (Plasmodium vivax, UniProt E6Y8B9); test: biochemical; conditions: IC50 against rPvSUB1, dose-response
T2 construct: 6-His (C); made in house; host or cells: baculovirus-infected insect cells (Tn5), then limited chymotrypsin digestion
T2 sequence (E6Y8B9 287-604): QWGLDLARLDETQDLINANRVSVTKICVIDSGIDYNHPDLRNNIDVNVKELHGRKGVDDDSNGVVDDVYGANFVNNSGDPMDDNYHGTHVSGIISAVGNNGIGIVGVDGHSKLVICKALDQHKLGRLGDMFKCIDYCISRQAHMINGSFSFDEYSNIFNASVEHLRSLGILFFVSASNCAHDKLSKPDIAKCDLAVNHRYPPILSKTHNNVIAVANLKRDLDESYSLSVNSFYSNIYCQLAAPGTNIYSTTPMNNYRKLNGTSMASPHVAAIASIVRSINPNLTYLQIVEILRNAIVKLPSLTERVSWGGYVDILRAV
Excerpt: as §1

[1] = molecular target: rPfSUB1cat (recombinant P. falciparum SUB1 catalytic domain) (Plasmodium falciparum, UniProt Q8I0V0); test: biochemical; conditions: for IC50: IC50 for steady-state inhibition of rPfSUB1cat, dose-response, substrate 0.1 μM
PfSUB1 = conditions: cited from earlier work
rPbSUB1 = molecular target: T3, rPbSUB1 (Plasmodium berghei, UniProt A0A509AM03); test: Cleavage of unlabelled N-acetylated decapeptides by rPbSUB1 (RP-HPLC); type: biochemical; conditions: RP-HPLC examination of digestion products
T3 construct: recombinant Plasmodium falciparum SUB1 catalytic domain (rPfSUB1cat; closed circles) and rPbSUB1cat (closed triangles); 6-His (C); made in house; host or cells: baculovirus-infected insect cells (Tn5), then limited chymotrypsin digestion
T3 sequence (A0A509AM03 257-574): as the sequence (A0A509AM03 257-574) above

rPfSUB1cat [2] = molecular target: T4, rPfSUB1cat (Plasmodium falciparum, UniProt Q8I0V0); test: Cleavage of unlabelled and AMC peptide substrates by rPfSUB1cat (RP-HPLC); type: biochemical; conditions: for reduction of substrate peak intensity: by 120 min digestion of equimolar mixture, RP-HPLC; for hydrolysis by rPfSUB1cat: prolonged incubations, data not shown
T4 construct: core domain (rPfSUB1cat) comprising Ser328 to Tyr671; made in house; host or cells: baculovirus-infected insect cells (Tn5), then limited chymotrypsin digestion
Excerpt: (SERA4st1F-6R12); Ac-CITAQDDEEC (called SERA4st1F-6R); and Ac-[…] (SERA4st1F-6R-S). […] Initial hydrolysis rates were then plotted against inhibitor concentration.
In a third approach to investigating the role of prime side interactions in PfSUB1–substrate recognition, we produced a modified form of the SERA4st1 peptide substrate (called SERA4st1-ADA) in which both the P1′ and P3′ residues were replaced by Ala. Based on our MD data, these substitutions would be predicted to abolish potentially important stabilizing interactions with the S′ surface of the enzyme. To compare cleavage efficiencies of SERA4st1 and SERA4st1-ADA, we used a previously-described method in which an equimolar mixture of the two peptides was supplemented with rPfSUB1cat and the rates of peptide hydrolysis established by RP-HPLC analysis of the resulting digestion products ([Child et al., 2010]). Under such conditions, because the peptides effectively act as competing substrates, their relative initial rates of hydrolysis are solely a function of the ability of PfSUB1 to discriminate between them, and so are directly proportional to their relative kcat/Km values, irrespective of their concentration ([Cornish-Bowden, 2004]).

rPfSUB1cat [3] = molecular target: T4, rPfSUB1cat; type: biochemical; conditions: substrates 0.1 μM
Excerpt: as §1

rPbSUB1cat = conditions: substrates 0.1 μM
Excerpt: as §1

[4] = molecular target: T5, recombinant Plasmodium falciparum subtilisin-like protease 1 (rPfSUB1), p54/p47 protease species (Plasmodium falciparum, UniProt O61142 218-690); test: cell-based or functional assay
T5 sequence: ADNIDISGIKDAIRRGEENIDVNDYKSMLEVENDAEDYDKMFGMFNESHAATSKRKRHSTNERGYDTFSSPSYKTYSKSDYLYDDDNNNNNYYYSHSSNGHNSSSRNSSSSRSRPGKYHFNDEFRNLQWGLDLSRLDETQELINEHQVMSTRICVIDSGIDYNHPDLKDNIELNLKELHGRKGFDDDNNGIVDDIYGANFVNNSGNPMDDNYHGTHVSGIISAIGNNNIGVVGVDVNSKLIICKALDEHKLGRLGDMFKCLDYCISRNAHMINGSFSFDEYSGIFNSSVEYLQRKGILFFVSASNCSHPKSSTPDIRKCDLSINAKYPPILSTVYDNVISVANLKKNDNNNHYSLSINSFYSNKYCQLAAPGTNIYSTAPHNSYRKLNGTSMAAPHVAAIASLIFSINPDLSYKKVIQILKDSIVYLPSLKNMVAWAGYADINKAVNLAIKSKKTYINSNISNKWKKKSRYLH

[5] = ref Withers-Martinez et al., 2002

CC[C@H](NC(=O)[C@H](C)NC(=O)[C@@H](NC(=O)[C@@H](NC(=O)[C@H](CCCCN)NC(C)=O)[C@@H](C)CC)[C@@H](C)O)C(=O)C(=O)NC1CC1 [KS-182] (Ac-KITA[Abu(ψCOCO)]-NHcPr)
IC50 (PbSUB1): ≥ 100 µM | IC50 (rPvSUB1): ~12 µM and 12 µM | Ki [1]: 7.3 µM | IC50 [1]: ~6 µM and 6 µM

O=S(=O)(F)Cc1ccccc1 [PMSF, phenylmethylsulfonyl fluoride]
effect of PMSF on PfSUB1 (PfSUB1; [5]): unaffected

Ac-VVTGE↓SEETS [Ac-VVTGE ↓ SEETS]
cleavage by rPbSUB1 at the expected position (rPbSUB1): correctly cleaved

Ac-KITAQDDEES [SERA4st1, N-acetylated decapeptide based on a PfSUB1 processing site in SERA4]
reduction of substrate peak intensity (rPfSUB1cat [2]): 84.6%

Ac-CITAQSDEEC (cysteine pairing not given here) [SERA4st1F-6R-S]
effect of P1′ Asp to Ser substitution (vs SERA4st1F-6R) on cleavage by rPfSUB1cat (rPfSUB1cat [3]): no significant effect | fold increase in initial hydrolysis rate by rPbSUB1cat vs SERA4st1F-6R (rPbSUB1cat): 5.8 fold

Ac-DVSGQ↓SENHQ [Ac-DVSGQ ↓ SENHQ]
cleavage by rPbSUB1 at the expected position (rPbSUB1): correctly cleaved

Ac-KITAQADAES [SERA4st1-ADA, SERA4st1 with P1′ and P3′ residues replaced by Ala]
reduction of substrate peak intensity (rPfSUB1cat [2]): ~1% | initial cleavage rate, fold lower than that of parental SERA4st1 (rPfSUB1cat [2]; equimolar mixture of both peptides, SERA4st1 digested ⩽20%): at least 80 fold

Ac-TTSGQ↓SSTEP [Ac-TTSGQ ↓ SSTEP]
cleavage by rPbSUB1 at the expected position (rPbSUB1): correctly cleaved

Ac-TTRAE↓SEEDI [Ac-TTRAE ↓ SEEDI]
cleavage by rPbSUB1 at the expected position (rPbSUB1): correctly cleaved

CC[C@H](C)[C@H](NC(=O)[C@H](CCCCN)NC(C)=O)C(=O)N[C@H](C(=O)N[C@@H](C)C(=O)N[C@@H](CCC(N)=O)C(=O)Nc1ccc2c(C)cc(=O)oc2c1)[C@@H](C)O [Ac-KITAQ-AMC] (Ac-KITAQ-{AMC})
hydrolysis by rPfSUB1cat (rPfSUB1cat [2]): completely resistant to hydrolysis

Ac-EIKAET
hydrolysis by rPfSUB1cat (rPfSUB1cat [2]): No hydrolysis

O=C(O)c1cc[c]([Hg][OH])cc1 [pHMB, para-hydroxymercuribenzoate]
inhibition of PfSUB1 by pHMB (PfSUB1; [5]): potently inhibited

CC[C@H](C)[C@H](NC(=O)[C@H](CCCCN)NC(C)=O)C(=O)N[C@H](C(=O)N[C@@H](C)C(=O)NC(C)C(=O)C(=O)NCCC(=O)O)[C@@H](C)O (stereo partly shown) [KS-466] (Ac-KITA[ξ3Amino2oxobutanoyl][βAla]-OH)
IC50 (rPvSUB1): 2 µM and ~2 µM | Ki [1]: 0.7 µM | IC50 [1]: 1 µM and ~1 µM

B1: PfSUB1 prodomain (PD) released by autocatalytic cleavage of rPfSUB1 (domain or fragment)
chain: KEVRSEENGKIQDDAKKIVSELRFLEKVEDVIEKSNIGGNEVDADENSFNPDTEVPIEEIEEIKMRELKDVKEEKNKNDNHNNNNNNNNISSSSSSSSNTFGEEKEEVSKKKKKLRLIVSENHATTPSFFQESLLEPDVLSFLESKGNLSNLKNINSMIIELKEDTTDDELISYIKILEEKGALIESDKLVS
initial rate of cleavage of fluorogenic substrate SERA4st1F-6R12 (0.1 uM) by rPfSUB1cat (prodomain largely degraded) against an equivalent mass of untreated rPfSUB1 (with its prodomain) [4]: 9.8 fold | inhibitor potency against cognate enzyme (PfSUB1; ref Jean et al., 2003): ~0.005 µM

Source: publication PMC3378952, “Plasmodium subtilisin-like protease 1 (SUB1): Insights into the active-site structure, specificity and function of a pan-malaria drug target” (International Journal for Parasitology, 2012)
